Test results taken from US8252832B2, “Kinesin inhibitors as cancer therapeutics” (Novartis AG, priority 2007, dated 2012).
Read-outs that look alike come from different tables or passages of the source.

Test system: NCI60 panel of cell lines
Experiment: CellTiter-Glo, NCI60 panel, mean of panel
Assay type: cell-based
Source text: Identification of tumor types that are the most sensitive to the KSP inhibitors of the present invention can be accomplished using an unbiased approach that uses several cell-based assays. The assays chosen were as follows: • CellTiter-Glo®. This is an assay designed to measure ATP concentration in a cell culture, and can be correlated to cell number. Briefly CellTiter-Glo® (Promega Corporation) is a homogeneous method using the single CellTiter-Glo® reagent to detect ATP wherein ATP in the assay drives the activity of a thermostable luciferase to create a luminescent signal which can then be measured and correlated with the number of viable cells. Briefly, for adherent cells, 1,000 to 5,000 cells/well were plated in 96-well plates (100 μl/well) and let to adhere for 24 hours before being treated with drug. For non-adherent cells, 1,000 to 10,000 cells/well were plated in 96-well plates (100 μl/well) and immediately treated with drug. Drug dilutions were prepared in DMSO at 1000 times the final concentration. These dilutions were then diluted 1/100 in growth media before being added to the cells (11 μl/well) to achieve the desired final concentration. […] The enzymatic reaction is coupled to a chemical reaction that uses a tetrazolium salt to form a formazan that is red and can be detected by its absorbance at 490 nm. […]

SMILES: CC(C)(C)[C@H](c1nc(-c2cc(F)ccc2F)cn1Cc1ccccc1)N(CC[C@H](N)CF)C(=O)CO [Compound IIa]
- GI50 (GI50 in nM, read-out: Log(GI50), arithmetic mean of panel (converted)): 2.14 nM
- GI50 (read-out: GI50, geometric mean of panel): 2.14 nM
